Assay results from patent US20090227619A1, “Harmine derivatives, intermediates used in their preparations, preparation processes and use therefo” (priority 2003, published 2009).
Where two headings read alike, the source gives them in different places.

Key:
[1] = tested on: Lewis lung cancer; details: Lewis lung cancer; for Body weight of the animals, end, First time / Body weight of the animals, end, Second time: ip × 10qd; for Inhibition rate (%) Lewis cancer: comparison table 43, in vivo;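 as to all read-outs here: mice implanted subcutaneously in the axilla with Lewis lung tumor cells, treated starting the following day, killed roughly three weeks after implantation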
Excerpt: There was one group of 8 to 10 mice C57BL/6 and Kunming mice for the anti-tumor tests and two groups of mice for negative control.
(3) Sources of tumors: Lewis lung cancer cells and S180 sarcoma in mice, which were sub-cultured and maintained by Pharmacological Center of Shanghai Pharmaceutical Industrial Research Institute.
All samples were weighed and added a small amount of Tween-80 to facilitate dissolution during the experiment, and then 0.5% CMC-Na solution was gradually added to achieve the desired concentration. The volume for experiment was 0.5 ml/20 g mouse.
The medicaments were intraperitoneally administered once a day continuously for 10 days.
For the negative control group, a vehicle of the same volume was intraperitoneally administered once a day continuously for 10 days. For the positive control group, CTX was administered in the dosage of 30 mg/kg once a day continuously for 7 days.
In vivo anti-tumor subcutaneous vaccination in the axilla was employed. Wildly grown tumor source was taken under sterile conditions to form a cell suspension of about 1×10^7 ml by homogenization method. For a corresponding mouse host, the suspension was injected in the axilla in an amount of 0.2 ml/mouse. The next day, the medicaments were administered according to the design of the tests. About three weeks later, all the groups of animals were executed. The tumors were taken from the animals and weighed. The inhibition rate of tumors was calculated according to the following formula:
T: average tumor weight of treated group; C: average tumor weight of negative control group.

[2] = tested on: PLA-801; test: In vitro cytotoxicity, IC50 by MTT method, PLA-801; assay type: cell-based; details: PLA-801 cell strain; read-out: IC50 PLA-801
Procedure, shortened: (§1)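 MTT viability, 48 h exposure: cells 10^5/ml in RPMI1640 + 10% FBS, 37 °C/5% CO2; MTT 4 h, DMSO solubilisation, A490.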

[3] = tested on: HepG2; test: In vitro cytotoxicity, IC50 by MTT method, HepG2; assay type: cell-based, human; details: Homo sapiens; HepG2 cell strain; read-out: IC50 HepG2
Procedure, shortened: as §1

[4] = tested on: NIH3T3; test: In vitro cytotoxicity, IC50 by MTT method, NIH3T3; assay type: cell-based; details: Mus musculus; NIH3T3 cell strain; read-out: IC50 NIH3T3
Procedure, shortened: as §1

[5] = tested on: S180 sarcoma; details: S180 sarcoma; for Body weight of the animals, beginning, First time / Body weight of the animals, end, First time / Inhibition rate, First time / Weight of the tumor X ± SD, First time / Body weight of the animals, beginning, Second time / Body weight of the animals, end, Second time / Inhibition rate, Second time: ip × 10qd; for Inhibition rate (%) S180 sarcomata: comparison table 43, in vivo
[6] = tested on: Bel-7402; test: In vitro cytotoxicity, IC50 by MTT method, Bel-7402; assay type: cell-based; details: Homo sapiens, Bel-7402; Bel7402 cell strain; read-out: IC50 Bel7402
Procedure, shortened: as §1

[7] = tested on: BGC-823; test: In vitro cytotoxicity, IC50 by MTT method, BGC-823; assay type: cell-based; details: Homo sapiens, BGC-823; BGC823 cell strain; read-out: IC50 BGC823
Procedure, shortened: as §1

[8] = tested on: Lovo; test: In vitro cytotoxicity, IC50 by MTT method, Lovo; assay type: cell-based; details: Homo sapiens; Lovo cell strain; read-out: IC50 Lovo
Procedure, shortened: as §1

[9] = in vivo; details: both, Kunming, mouse, ip
Description: (§2) Five grades of dosages for each sample according to the results of the preliminary test, each dosage being 0.8 larger than the previous one
(§3) During the experiment, each sample was added a small amount of Tween-80 to facilitate dissolution after the sample was weighed, and then 0.5% CMC-Na solution was gradually added to achieve the desired concentration. The experimental volume was 0.5 ml/20 g mouse.
(§4) Single injection via intraperitoneal (i.p.) to different groups mice.
(§5) Kunming mice were divided into different groups randomly according to their sex. The medicament was intraperitoneally administered to each group of mice according to the dosage setting. After the administration of the medicaments, mice were observed continuously for the first 2 h for any gross behavioral changes and deaths. Dead animals were dissected and examined for any possible organ damage. […] Conditions of animals died within two week were recorded. After two weeks, all survived animals were sacrificed and checked macroscopically for possible damage to the heart, liver, kidneys and so on. Viscera that had substantive pathological changes were pathologically examined.

[10] = tested on: CT-DNA; test: DNA thermal denaturation, determination of ΔTm; assay type: binding; details: 20 uM compound, Tm of CT-DNA alone 61° C.
Procedure, shortened: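 CT-DNA at 15 ug/ml in PE buffer (1 mM Na2HPO4, 0.1 mM EDTA, pH 7.6), heated at 0.5° C./min from 25 to 95° C. Tm taken as hyperchromic transition mid-point; ΔTm = Tm of drug-DNA complex minus Tm of DNA alone, mean of three runs.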

[11] = tested on: Hela; test: In vitro cytotoxicity, IC50 by MTT method, Hela; assay type: cell-based; details: Homo sapiens; Hela cell strain; read-out: IC50 Hela
Procedure, shortened: as §1

[12] = tested on: Kunming mice; details: for Death rate: single i.p.
Description: as §2, §3, §4, §5

[13] = CT-DNA 15 ug/ml, PE buffer pH 7.6
[14] = 50% male 50% female mice, 240 mg/kg
[15] = 50% male 50% female mice, 300 mg/kg
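For Death rate in this document: acute toxicity in Kunming mice grouped by sex, one intraperitoneal dose at five graded levels in Tween-80 plus 0.5% CMC-Na, deaths monitored over two weeks.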
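For LD50 in this document: acute toxicity in Kunming mice grouped by sex, one intraperitoneal dose at five graded levels in Tween-80 plus 0.5% CMC-Na, deaths monitored over two weeks.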
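For MTD in this document: acute toxicity in Kunming mice grouped by sex, one intraperitoneal dose at five graded levels in Tween-80 plus 0.5% CMC-Na, deaths monitored over two weeks.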
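For Sex in this document: acute toxicity in Kunming mice grouped by sex, one intraperitoneal dose at five graded levels in Tween-80 plus 0.5% CMC-Na, deaths monitored over two weeks.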

Q: What does the source list for `OCc1cc2c3ccccc3n(Cc3ccccc3)c2cn1` [Compound 42, 9-benzyl-3-hydroxymethyl-β-carboline]?
A: Body weight of the animals, end, First time ([1]; Dosage 50 (mg/ml)): 24.7 g; Body weight of the animals, end, Second time ([1]; Dosage 50 (mg/ml)): 24.7 g; Body weight of the animals, beginning, First time ([1]; Dosage 50, ip × 10qd): 20.0 g; Inhibition rate, First time ([1]; Dosage 50, ip × 10qd): 22.22%; Weight of the tumor X ± SD, First time ([1]; Dosage 50, ip × 10qd): 2.14 ± 0.26 g; Body weight of the animals, beginning, Second time ([1]; Dosage 50, ip × 10qd): 19.1 g; Inhibition rate, Second time ([1]; Dosage 50, ip × 10qd): 26.96%; Weight of the tumor X ± SD, Second time ([1]; Dosage 50, ip × 10qd): 1.89 ± 0.14 g; Body weight of the animals, end, First time ([1]; Dosage 100 (mg/ml)): 25.1 g; Body weight of the animals, end, Second time ([1]; Dosage 100 (mg/ml)): 25.1 g; Body weight of the animals, beginning, First time ([1]; Dosage 100, ip × 10qd): 20.3 g; Inhibition rate, First time ([1]; Dosage 100, ip × 10qd): 33.33%; Weight of the tumor X ± SD, First time ([1]; Dosage 100, ip × 10qd): 1.62 ± 0.12 g; Body weight of the animals, beginning, Second time ([1]; Dosage 100, ip × 10qd): 18.9 g; Inhibition rate, Second time ([1]; Dosage 100, ip × 10qd): 34.47%; Weight of the tumor X ± SD, Second time ([1]; Dosage 100, ip × 10qd): 1.92 ± 0.26 g; Inhibition rate (%) Lewis cancer [1]: 34.47%; IC50 [2]: 160 µM; IC50 [3]: 90 µM; IC50 [4]: 90 µM; Body weight of the animals, beginning, First time ([5]; Dosage 50 (mg/ml)): 19.5 g; Body weight of the animals, end, First time ([5]; Dosage 50 (mg/ml)): 24.7 g; Inhibition rate, First time ([5]; Dosage 50 (mg/ml)): 19.10%; Weight of the tumor X ± SD, First time ([5]; Dosage 50 (mg/ml)): 2.16 ± 0.38 g; Body weight of the animals, beginning, Second time ([5]; Dosage 50 (mg/ml)): 18.4 g; Body weight of the animals, end, Second time ([5]; Dosage 50 (mg/ml)): 25.6 g; Inhibition rate, Second time ([5]; Dosage 50 (mg/ml)): 20.74%; Weight of the tumor X ± SD, Second time ([5]; Dosage 50, ip × 10qd): 2.14 ± 0.23 g; Body weight of the animals, beginning, First time ([5]; Dosage 100 (mg/ml)): 19.2 g; Body weight of the animals, end, First time ([5]; Dosage 100 (mg/ml)): 24.3 g; Inhibition rate, First time ([5]; Dosage 100 (mg/ml)): 28.09%; Weight of the tumor X ± SD, First time ([5]; Dosage 100 (mg/ml)): 1.92 ± 0.25 g; Body weight of the animals, beginning, Second time ([5]; Dosage 100 (mg/ml)): 18.9 g; Body weight of the animals, end, Second time ([5]; Dosage 100 (mg/ml)): 25.1 g; Inhibition rate, Second time ([5]; Dosage 100 (mg/ml)): 25.15%; Weight of the tumor X ± SD, Second time ([5]; Dosage 100, ip × 10qd): 2.02 ± 0.36 g; Inhibition rate (%) S180 sarcomata [5]: 28.09%; IC50 [6]: 110 µM; IC50 [7]: 110 µM; IC50 [8]: 100 µM; LD50 at 2 weeks [9]: 247 mg/kg; ΔTm [10, 13]: −0.3 °C; ΔTm ([10]; CT-DNA thermal denaturation): −0.3 °C; IC50 [11]: 120 µM; Death rate [12, 14]: 50; Death rate [12, 15]: 80; Death rate ([12]; female mice, 240 mg/kg): 60; Death rate ([12]; female mice, 300 mg/kg): 80; Death rate ([12]; male mice, 240 mg/kg): 40; Death rate ([12]; male mice, 300 mg/kg): 80; LD50 ([12]; mouse, in vivo, ip): 214 to 286 mg/kg

Q: Which “Body weight of the animals, end, First time” value (shortened to “Body weight … end, First time”) ([1]; Dosage 50 (mg/ml)) does the source give for `c1ccc(Cn2c3ccccc3c3ccncc32)cc1` [Compound 84, 9-Benzyl-β-carboline] here?
A: The value was 24.1 g.

Q: What about the “Body weight of the animals, end, Second time” value (“Body weight … end, Second time” below) ([1]; Dosage 50 (mg/ml)) of the same molecule?
A: The value was 25.2 g.

Q: What about the “Body weight of the animals, beginning, First time” value ([1]; Dosage 50, ip × 10qd) of the same molecule?
A: Its value is 19.0 g.

Q: And the “Inhibition rate, First time” value ([1]; Dosage 50, ip × 10qd)?
A: Its value is 27.09%.

Q: What about the “Weight of the tumor X ± SD, First time” value ([1]; Dosage 50, ip × 10qd) of the same molecule?
A: The value was 1.83 ± 0.11 g.

Q: What about the “Body weight of the animals, beginning, Second time” value ([1]; Dosage 50, ip × 10qd) of the same molecule?
A: Its value is 19.7 g.

Q: And the “Inhibition rate, Second time” value ([1]; Dosage 50, ip × 10qd)?
A: Its value is 30.93%.

Q: And the “Weight of the tumor X ± SD, Second time” value ([1]; Dosage 50, ip × 10qd)?
A: The value was 1.63 ± 0.16 g.

Q: And the “Body weight … end, First time” value ([1]; Dosage 100 (mg/ml))?
A: Its value is 24.2 g.

Q: And the “Body weight … end, Second time” value ([1]; Dosage 100 (mg/ml))?
A: Its value is 24.7 g.

Q: What about the “Body weight of the animals, beginning, First time” value ([1]; Dosage 100, ip × 10qd) of the same molecule?
A: Its value is 18.5 g.

Q: And the “Inhibition rate, First time” value ([1]; Dosage 100, ip × 10qd)?
A: The value was 35.06%.

Q: And the “Weight of the tumor X ± SD, First time” value ([1]; Dosage 100, ip × 10qd)?
A: Its value is 1.63 ± 0.11 g.

Q: And the “Body weight of the animals, beginning, Second time” value ([1]; Dosage 100, ip × 10qd)?
A: Its value is 19.4 g.

Q: What about the “Inhibition rate, Second time” value ([1]; Dosage 100, ip × 10qd) of the same molecule?
A: The value was 37.29%.

Q: And the “Weight of the tumor X ± SD, Second time” value ([1]; Dosage 100, ip × 10qd)?
A: The value was 1.48 ± 0.15 g.

Q: And the “Inhibition rate (%) Lewis cancer” value [1]?
A: The value was 37.29%.

Q: And the IC50 [2]?
A: The IC50 was 120 µM.

Q: What about the IC50 [3] of the same molecule?
A: Its IC50 is 110 µM.

Q: And the IC50 [4]?
A: Its IC50 is 110 µM.

Q: What about the “Body weight of the animals, beginning, First time” value ([5]; Dosage 50 (mg/ml)) of the same molecule?
A: The value was 19.6 g.

Q: And the “Body weight … end, First time” value ([5]; Dosage 50 (mg/ml))?
A: The value was 26.8 g.

Q: And the “Inhibition rate, First time” value ([5]; Dosage 50 (mg/ml))?
A: Its value is 29.47%.

Q: And the “Weight of the tumor X ± SD, First time” value ([5]; Dosage 50 (mg/ml))?
A: Its value is 2.01 ± 0.24 g.

Q: And the “Body weight of the animals, beginning, Second time” value ([5]; Dosage 50 (mg/ml))?
A: The value was 20.4 g.

Q: What about the “Body weight … end, Second time” value ([5]; Dosage 50 (mg/ml)) of the same molecule?
A: The value was 25.4 g.

Q: And the “Inhibition rate, Second time” value ([5]; Dosage 50 (mg/ml))?
A: Its value is 31.23%.

Q: And the “Weight of the tumor X ± SD, Second time” value ([5]; Dosage 50, ip × 10qd)?
A: Its value is 1.96 ± 0.16 g.

Q: What about the “Body weight of the animals, beginning, First time” value ([5]; Dosage 100 (mg/ml)) of the same molecule?
A: Its value is 19.7 g.

Q: What about the “Body weight … end, First time” value ([5]; Dosage 100 (mg/ml)) of the same molecule?
A: Its value is 26.4 g.

Q: What about the “Inhibition rate, First time” value ([5]; Dosage 100 (mg/ml)) of the same molecule?
A: The value was 37.19%.

Q: And the “Weight of the tumor X ± SD, First time” value ([5]; Dosage 100 (mg/ml))?
A: Its value is 1.79 ± 0.27 g.

Q: And the “Body weight of the animals, beginning, Second time” value ([5]; Dosage 100 (mg/ml))?
A: The value was 20.2 g.

Q: What about the “Body weight … end, Second time” value ([5]; Dosage 100 (mg/ml)) of the same molecule?
A: Its value is 25.0 g.

Q: And the “Inhibition rate, Second time” value ([5]; Dosage 100 (mg/ml))?
A: Its value is 37.19%.

Q: And the “Weight of the tumor X ± SD, Second time” value ([5]; Dosage 100, ip × 10qd)?
A: Its value is 1.79 ± 0.16 g.

Q: And the “Inhibition rate (%) S180 sarcomata” value [5]?
A: The value was 37.19%.

Q: And the IC50 [6]?
A: The IC50 was 80 µM.

Q: And the IC50 [7]?
A: Its IC50 is 70 µM.

Q: And the IC50 [8]?
A: Its IC50 is 120 µM.

Q: What about the MTD at 2 weeks [9] of the same molecule?
A: Its MTD at 2 weeks is 240 mg/kg.

Q: And the ΔTm [10, 13]?
A: Its ΔTm is 1.5 °C.

Q: And the ΔTm ([10]; CT-DNA thermal denaturation)?
A: The ΔTm was 1.5 °C.

Q: What about the IC50 [11] of the same molecule?
A: The IC50 was 50 µM.

Q: What about the Death rate [12, 14] of the same molecule?
A: Its Death rate is 0.

Q: What about the Death rate [12, 15] of the same molecule?
A: Its Death rate is 30.

Q: And the Sex ([12]; both, Kunming, mouse, in vivo, ip, 2 weeks)?
A: The Sex was 240.

Q: What about the Death rate ([12]; female mice, 240 mg/kg) of the same molecule?
A: The Death rate was 0.

Q: What about the Death rate ([12]; female mice, 300 mg/kg) of the same molecule?
A: Its Death rate is 40.

Q: And the Death rate ([12]; male mice, 240 mg/kg)?
A: Its Death rate is 0.

Q: And the Death rate ([12]; male mice, 300 mg/kg)?
A: Its Death rate is 20.
